The subject of test [1] is RMA-S cells. Format: cell-based, mouse.
For test [2], the system named is MVA-L1Δc-infected B6 cells. The class given is cell-based, mouse.

The text below walks through data of patent publication US6911207B1, “Cytotoxic T-cell epitopes of the papillomavirus L1-protein and use thereof in diagnostics and therapy” (MediGene Aktiengesellschaft, priority 1999, dated 2005).

In the case of “ASNENMETM (Influenza Virus Type A) [AM control peptide]”, the “specific lysis of peptide-preincubated RMA-S target cells by spleen cells of L1-immunized mouse 1” value in test [1] was “did not cause any distinct lysis”.

As to “L1 VLPs: HPV16 L1 virus-like particles (Muller M. et al. 1997)”, in test [2], the “specific lysis of MVA-F6-infected (control virus) B6 target cells by spleen cells of the immunized mouse” value is recorded as “not the MVA-F6-infected target cells” and the “specific lysis of MVA-L1Δc-infected B6 target cells by spleen cells of the immunized mouse” value is “lysed the MVA-L1Δc-infected target cells”.
